The values below come from US12466816B2, “Fused cyclic compound capable of degrading protein and use thereof” (Medshine Discovery Inc., priority 2019, dated 2025).

Common to all, as to type: cell-based
One series deals with U87-MG cells. The series is described as follows: Drug synergism experiment with DNA damaging agents (CCK-8). To be noted: 10 μM WX106, low concentrations of agent, 72 hours. The protocol:
U87-MG cells were treated with WX106 and DNA damaging agents, temozolomide, cisplatin, and gemcitabine for 72 hours, respectively, and the proliferation level of cells was detected by CCK-8. Among them, the WX106 concentration was 10 μM, and the DNA damaging agent concentrations were 0.1 μM, 1 μM and 10 μM, respectively.

A further series has as its target Wee1 (Homo sapiens, UniProt P30291). The series is described as follows: Detection of compounds that degrade Wee1 protein (Western blot). More on the design: endogenous in cells; host or cells: MOLT-4, U87-MG. To be noted: MOLT-4 cells 10 μM 4 hours; U87-MG cells 1 μM 24 hours. Here is the method: MOLT-4 cells were treated with 10 μM of the test compound for 4 hours and U87-MG cells were treated with 1 μM of the test compound for 24 hours, respectively. With GAPDH (Santa Cruz, sc-32233) as the internal reference protein, the protein level of Wee1 (Cell Signaling, 13084S) was detected using Western blot. Cells were collected, lysed with protein loading buffer (1M Tris-HCl, 10% SDS, 0.025% BPB), and denatured at 98° C. for 10 min before Western blot analysis. The main steps include: 1) Electrophoresis: The protein was separated by SDS-PAGE electrophoresis. During the electrophoresis, the voltage was adjusted to 80 v for about 30 min, and then the voltage was adjusted to 120 v until the bromophenol blue ran out of the gel. 2) Transfer to a membrane: the gel was stuck to a methanol-activated PVDF membrane using the method of wet transfer, and after the top and bottom layers were wrapped with filter paper, the membrane was placed into the gel holder cassette and fixed to the transfer tank, and transfer was performed at a constant current of 250 mA for 90 min; 3) Blocking: the PVDF membrane with trace protein was placed into the antibody incubation box, 5% skim milk was added to completely cover the PVDF membrane, and incubation was performed for 1 hour on a shaker at room temperature; 4) Incubation of the primary antibody: the primary antibody was prepared with 5% BSA (1:1000) and incubated overnight on a shaker at 4° C.; 5) Incubation of the secondary antibody: the membrane was washed thrice with TBST, the secondary antibody (prepared with 5% skim milk) was added (according to the species source of the primary antibody, different secondary antibodies with a dilution range of 1:3000-1:10000 were used), and incubation was performed on a shaker at room temperature for one hour; 5) Exposure: the membrane was washed thrice with TBST and the bands on the membrane were detected by chemiluminescence.
For orientation: A western blot detects proteins with antibodies after separation by electrophoresis.

The test system of another series is SNU182. The series is described as follows: Cell growth competition experiment with Poma (CCK-8). The settings on record: 1, 10 and 50 μM Poma with 10 μM WX106, 72 hours. The protocol:
(§1) Principle: It is known that Poma is a compound that binds to CRBN, and Poma has no obvious inhibitory effect on adherent cells. If a compound depends on CRBN to inhibit cell growth, Poma's competitive binding to CRBN will definitely affect the cytotoxic effect of this compound. Cells were treated with 1, 10 and 50 μM of Poma and 10 μM of WX106 for 72 hours; cell viability was detected using the CCK-8 kit and cell survival rate was calculated [based on the formula], cell survival rate=[(As −Ab)/(Ac−Ab)]×100% (where As represents the absorbance of the experimental wells, Ac represents the absorbance of the control wells, and Ab represents the absorbance of the blank wells); finally, the effect of the competitive binding of Poma on the cytotoxicity of WX106 was calculated to determine whether the cytotoxicity of WX106 is dependent on CRBN. This step was applied to both SUN182 and Hep3B cells.
CC885 was the positive control in this experiment and is known to kill tumor cells in a CRBN-dependent manner.

The subject of another series is Hep3B cells. The description is as above. The settings on record: 1, 10 and 50 μM Poma with 10 μM WX106, 72 hours. Here is the method:
as §1

The target in the next series is CRBN (Homo sapiens, UniProt Q96SW2). The series is described as follows: Protein degradation competition experiment (CC885-induced GSPT1 degradation). More on the design: endogenous in cells; host or cells: MOLT-4. To be noted: MOLT-4 cells, co-treated with 10 nM CC885, 4 hours, Western blot. Here is the method:
MOLT-4 cells were co-treated with 0.1, 1 and 10 μM of WX106 and 10 nM of CC885 for 4 hours, and the protein level of GSPT1 was then detected by Western blot, with Poma (Pomalidomide, Selleck, S1567) acting as the positive control in the experiment. Cells were collected and denatured in protein loading buffer (50 mM Tris-HCL 2% SDS, 0.025% BPB, 1% β-mercaptoethanol, 10% glycerol) at 98° C. for 10 min. Proteins were separated by SDS-PAGE and transferred to a PVDF membrane (Millipore, IPVH00010), blocked with 5% skim milk (dissolved in TBST buffer), incubated with a primary antibody overnight at 4° C., and then incubated with a secondary antibody (Anti-rabbit IgG, HRP-linked Antibody, Cell Signaling, 7074S) at room temperature for 1 hour, and the bands on the membrane were detected by chemiluminescence (ECL chemiluminescence kit, Beyotime Biotechnology, P0018AM).

Structures are written as SMILES.

`N.N.[Cl][Pt][Cl]` [Cisplatin, cisplatin]: the “proliferation of U87-MG cells, DNA damaging agent at low concentrations in combination with WX106” value in the series with U87-MG cells is on record as “significantly inhibit the proliferation of U87-MG cells”.

As to `CCCC(=O)Nc1ccc2occ(C3CCC(=O)NC3=O)c2c1` (stereo not shown) [WX006], the “pro-degradation effect on Wee1” value on Wee1 was “pro-degradation effect on Wee1”.

As to `O=C1CCC(c2coc3ccc(NC(=O)c4ccccc4)cc23)C(=O)N1` (stereo not shown) [WX005], the “pro-degradation effect on Wee1” value at Wee1 was “pro-degradation effect on Wee1”.

For `Nc1cccc2c1C(=O)N(C1CCC(=O)NC1=O)C2=O` (stereo not shown) [Poma, Pomalidomide], the “effect of Poma on the cytotoxicity caused by WX106” value with SNU182 and in the series with Hep3B cells was “capable of competitively inhibiting the cytotoxicity caused by WX106” in each case. Also, the “effect on degradation of GSPT1 induced by CC885” value at CRBN is listed as “could inhibit the pro-degradation of GSPT1 by CC885”.

As to `O=C1CCC(c2coc3ccc(NC(=O)c4ccnc(C(F)(F)F)c4)cc23)C(=O)N1` (stereo not shown) [WX002], at Wee1, the “pro-degradation effect on Wee1” value is “pro-degradation effect on Wee1”.

In the case of `Nc1ccn([C@@H]2O[C@H](CO)[C@@H](O)C2(F)F)c(=O)n1` [gemcitabine], in the series on U87-MG cells, the “proliferation of U87-MG cells, DNA damaging agent at low concentrations in combination with WX106” value is reported as “significantly inhibit the proliferation of U87-MG cells”.

With `O=C1CCC(c2coc3ccc(NC(=O)c4cccc(Cl)c4)cc23)C(=O)N1` (stereo not shown) [WX004], the “pro-degradation effect on Wee1” value on Wee1 is given as “pro-degradation effect on Wee1”.

As for `Cc1ccc(C(=O)Nc2ccc3occ(C4CCC(=O)NC4=O)c3c2)cc1` (stereo not shown) [WX003], the “pro-degradation effect on Wee1” value on Wee1 is reported as “pro-degradation effect on Wee1”.
